Test results as given in patent publication US9376382B2, “N-substituted isopropyldimethyl azulene sulfonamide derivatives, and preparation method and use thereof” (Sichuan Guokang Pharmaceutical Co., Ltd., priority 2011, dated 2016).
Entries after “also recorded” stand apart in the source; their conditions may differ.

Columns and labels:
[1] = High-temperature test (60° C.), stability study; assay type: physicochemical; conditions: open-stored; for Appearance Day 5: Day 5, cell wraps; for Appearance Day 5 / Appearance Day 10: first line given; for Appearance Day 10: Day 10, cell wraps;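 as to all read-outs here: samples kept uncovered in dishes at 60 °C for up to 10 days and examined on Day 5 and Day 10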
Procedure: (§1) The test samples were open-stored in culture dishes at 60° C. for 10 days, and taken and detected on Day 5 and Day 10. • The characteristics, especially colour change were observed. • Melting points were measured by automatic melting point apparatus. • By self-reflection, TLC is used to observe whether the spot numbers were increased after 5 days and 10 days.

[2] = High humidity test (25° C., relative humidity 90% ± 5%), stability study; assay type: physicochemical; conditions: RH 90% ± 5%; for Appearance Day 0: Day 0, cell wraps; for Appearance Day 0 / Appearance Day 5 / Appearance Day 10: first line given; for Appearance Day 5: Day 5, cell wraps; for Appearance Day 10: Day 10, cell wraps;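 as to all read-outs here: samples kept uncovered in sealed humidity desiccators, appearance judged mainly by colour change, melting point on an automatic apparatus, TLC checked for extra spots versus start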
Procedure: (§2) The test samples were open-stored in closed constant humidity desiccators under the condition of 25° C. and relative humidity of 90%+5% for 10 days, and taken and detected on Day 5 and Day 10. Meanwhile, each sample was accurately weighed before and after test.
The characteristics, especially colour change was observed.
Melting points were measured by an automatic melting point apparatus.
By self-reflection, TLC is used to observe whether the spot numbers were increased after 5 days and 10 days.

[3] = Intense light irradiation test (4500LX ± 500LX), stability study; assay type: physicochemical; conditions: for Appearance Day 0: Day 0, cell wraps; for Appearance Day 0 / Appearance Day 5 / Appearance Day 10: first line given; for Appearance Day 5: Day 5, cell wraps; for Appearance Day 10: Day 10, cell wraps
Procedure: (§3) The test samples were open-stored in “adjustable light boxes” under the conditions of illumination of 4500LX±500LX for 10 days, and taken and detected on Day 5 and Day 10 with regards to dry items. • The characteristics, especially colour change was observed. • Melting points were measured by an automatic melting point apparatus. • By self-reflection, TLC is used to observe whether the spot numbers were increased after 5 days and 10 days.

[4] = system: ethanol-induced gastric ulcer; assay: Anhydrous ethanol-induced gastric ulcer in mice; assay type: in vivo, Kunming mice; design: key to Gastri ulcer score (X ± SD) / Ulcer score (X ± SD) / Gastric ulcer score (X ± SD): summed pathology score: congestion 1, hemorrhage/erosion 1, linear erosion 3; conditions: for Inhibition rate (%): inhibition rate of ulcer vs model group; for Gastri ulcer score (X ± SD): dose equimolar to azulene sulfonate sodium 3.0 mg/kg (Omeprazole 13.4 mg/kg), model group 13.00 ± 1.77; for anti-gastric ulcer effect in words: ethanol-induced gastric ulcer in mice, compared to the model group
Procedure: Kunming mice, half male and half female, weighing 18-22 g, provided by the West China Animal Center
(1) Azulene sodium sulphonate was added with 0.5% CMC to prepare a suspension with concentration of 0.15 mg/ml.
(2) 20 mg of Omeprazole was added with 0.5% CMC to prepare a suspension with concentration of 0.67 mg/ml.
Kunming mice were randomly grouped according the body weight (one model control group or negative control group, one Omeprazole control group or positive control group, one Azulene sodium sulphonate control group, twelve test drug groups), eight mice for each group, half male and half female.
Administration: Model control group was administrated intragastrically with 0.5% CMC solution at a dose of 0.4 ml/20 g; Omeprazole control group was administrated intragastrically with Omeprazole at a dose of 0.4 ml/20 g, Azulene sodium sulphonate control group and each test drug groups were administrated intragastrically with their respective drug at a dose of 0.4 ml/20 g. The mice in each group were administrated once a day for successive five days. 0.5 hour after final administration, the mice in each group were administrated intragastrically with 0.5 ml of anhydrous ethanol, one hour later the mice were executed and dissected, and their stomaches were taken, washed and scored according to the pathological degree. For local congestion and rubefaction, score was 1; for petechial hemorrhage or erosion, score was respectively 1, for each linear erosion, score was 3. Statistical analysis was performed. Ulcer scores were calculated, significant differences between the groups were compared and the inhibition rates of ulcer were calculated [Inhibition rate of ulcer=(ulcer score of model group−ulcer score of drug administration group)/ulcer score of model group].

[5] = Stability studies (light, humidity, heat), overall comparison; conditions: summary of high-temperature, high humidity and intense light tests
Procedure: as §1, §2, §3

[6] = Stability of the purified compound in the air; assay type: physicochemical
[7] = Table 4, mice, intragastric once a day for five days
[8] = Table 5 data, relative increase

Row | SMILES | Melting point Day 0 [1] | Spot numbers on TLC Day 0 [1] | Melting point Day 5 [1] | Spot numbers on TLC Day 5 [1] | Appearance Day 5 [1] | Melting point Day 10 [1] | Spot numbers on TLC Day 10 [1] | Appearance Day 10 [1] | Melting point Day 0 [2] | Spot numbers on TLC Day 0 [2] | hygroscopic rate (%) Day 0 [2] [%] | Appearance Day 0 [2] | Melting point Day 5 [2] | Spot numbers on TLC Day 5 [2] | hygroscopic rate (%) Day 5 [2] [%] | Appearance Day 5 [2] | Melting point Day 10 [2] | Spot numbers on TLC Day 10 [2] | Appearance Day 10 [2] | Spot numbers on TLC Day 0 [3] | further results
1 | COc1ccc(NS(=O)(=O)c2cc(C)c3cc(C(C)C)ccc(C)c2-3)c(OC)c1 [4b, N-(2,4-dimethoxyphenyl)-3,8-dimethyl-5-isopropyl-1-azulene sulfonamide] | 114.0-115.5 °C | 1 | 114.5-116.0 °C | 1 | purple | 113.5-115.0 °C | 1 | purple | 114.0-115.5 °C | 1 | 0.97 | purple | 114.0-115.5 °C | 1 | 1.24 | purple | 114.0-115.5 °C | 1 | purple | 1 | Appearance Day 0 [3]: purple; Spot numbers on TLC Day 5 [3]: 1; Appearance Day 5 [3]: purple; Spot numbers on TLC Day 10 [3]: 1; Appearance Day 10 [3]: purple; Inhibition rate (%) ([4]; Table 4): 52.77%; Gastri ulcer score (X ± SD) [4, 7]: 6.14 ± 2.85; anti-gastric ulcer effect in words [4]: significantly relieve the pathological degree; melting point: 114 to 116 °C; light, humidity and heat stability in words [5]: better light, humidity and heat stability than azulene sulfonate sodium
2 | Cc1cc(S(=O)(=O)Nc2cccc3ccccc23)c2c(C)ccc(C(C)C)cc1-2 [4d, N-(1-naphthyl)-3,8-dimethyl-5-isopropyl-1-azulene sulfonamide] | 140.0-142.5 °C | 1 | 141.5-142.5 °C | 1 | purple | 140.0-142.5 °C | 1 | purple | 140.0-142.5 °C | 1 | 1.23 | purple | 140.0-142.5 °C | 1 | 1.61 | purple | 140.0-142.5 °C | 1 | purple | 1 | Melting point Day 0 [3]: 140.0-142.5 °C; Appearance Day 0 [3]: purple; Melting point Day 5 [3]: 141.5-143.0 °C; Spot numbers on TLC Day 5 [3]: 1; Appearance Day 5 [3]: purple; Melting point Day 10 [3]: 140.0-142.0 °C; Spot numbers on TLC Day 10 [3]: 1; Appearance Day 10 [3]: purple; Inhibition rate (%) ([4]; Table 4): 50.54%; Gastri ulcer score (X ± SD) [4, 7]: 6.43 ± 2.99; anti-gastric ulcer effect in words [4]: significantly relieve the pathological degree; melting point: 140 to 142 °C; light, humidity and heat stability in words [5]: better light, humidity and heat stability than azulene sulfonate sodium
3 | Cc1cc(S(=O)(=O)NC2CCCCC2)c2c(C)ccc(C(C)C)cc1-2 [4i, N-cyclohexyl-3,8-dimethyl-5-isopropyl-1-azulene sulfonamide] | 107.5-108.5 °C | 1 | 107.0-108.5 °C | 1 | purple | 107.0-108.5 °C | 1 | purple | 108.5-109.0 °C | 1 | 1.89 | purple | 108.5-109.5 °C | 1 | 2.35 | purple | 107.5-108.5 °C | 1 | purple | 1 | Melting point Day 0 [3]: 107.5-108.5 °C; Appearance Day 0 [3]: purple; Melting point Day 5 [3]: 107.5-108.5 °C; Spot numbers on TLC Day 5 [3]: 1; Appearance Day 5 [3]: purple; Spot numbers on TLC Day 10 [3]: 1; Appearance Day 10 [3]: purple; Inhibition rate (%) ([4]; Table 4): 50.92%; Gastri ulcer score (X ± SD) [4, 7]: 6.38 ± 3.85; anti-gastric ulcer effect in words [4]: significantly relieve the pathological degree; melting point: 108 to 109 °C; light, humidity and heat stability in words [5]: better light, humidity and heat stability than azulene sulfonate sodium
4 | Cc1cc(S(=O)(=O)Nc2ccc(N)cc2)c2c(C)ccc(C(C)C)cc1-2 [4l, N-(4-aminophenyl)-3,8-dimethyl-5-isopropyl-1-azulene sulfonamide] | 87.5-89.0 °C | 1 | 88.0-89.0 °C | 1 | purple | 88.0-89.0 °C | 1 | purple | 87.5-89.0 °C | 1 | 1.09 | purple | 87.5-89.5 °C | 1 | 1.81 | purple | 87.5-89.5 °C | 1 | purple | 1 | Melting point Day 0 [3]: 87.5-89.0 °C; Appearance Day 0 [3]: purple; Melting point Day 5 [3]: 87.5-89.0 °C; Spot numbers on TLC Day 5 [3]: 1; Appearance Day 5 [3]: purple; Melting point Day 10 [3]: 87.5-89.5 °C; Spot numbers on TLC Day 10 [3]: 1; Appearance Day 10 [3]: purple; Inhibition rate (%) ([4]; Table 5): 45.20%; Ulcer score (X ± SD) ([4]; Table 5, mice, intragastric once a day for five days, equimolar doses, model group 20.33 ± 12.23): 11.14 ± 6.41; increase of inhibition rate compared to Omeprazole [4, 8]: 23%; increase of inhibition rate compared to azulene sulfonate sodium [4, 8]: 38%; anti-gastric ulcer effect in words [4]: significantly relieve the pathological degree; also recorded: better therapeutic effect on gastric ulcer than azulene sulfonate sodium and omeprazole; melting point: 88 to 90 °C; light, humidity and heat stability in words [5]: better light, humidity and heat stability than azulene sulfonate sodium
5 | Cc1cc(S(=O)(=O)NN)c2c(C)ccc(C(C)C)cc1-2 [4m, N-amino-3,8-dimethyl-5-isopropyl-1-azulene sulfonamide] |  |  |  |  |  |  |  |  |  |  |  |  |  |  |  |  |  |  |  |  | stability in the air [6]: deteriorated soon in the air and had a very poor stability
